Among the data in ChEMBL document CHEMBL1128796, “2-Substituted 2-aminoethanol: Minimum essential structure for immunosuppressive activity of ISP-I (Myriocin)” (Bioorg Med Chem Lett, 1995) are IC50 values, retold here.

Structures can show the parent of a compound that is named as a salt.

A word on the IC50: it is the midpoint of a concentration-inhibition curve. High values mean lower potency, low ones higher potency.

For this assay, the species on record is Mus musculus. Briefly: Effect on mouse allogenic mixed lymphocyte reaction (MLR). The format is functional.
Consider `CCCCCCCCCCCCCCCCCCC(CO)CO`, for which the IC50 was over 10000 nM.
To `CCCCCCCCCCCCCCCCCCN` [OCTADECYLAMINE] belongs over 10000 nM; to `CCCCCCCCc1ccc(CCC(N)(CO)CO)cc1` [FINGOLIMOD HYDROCHLORIDE], 6.1 nM; to `CCCCCCCCc1ccc(CCC(N)CO)cc1` (configuration not stated), 11 nM.
Regarding `CCCCCCC(=O)CCCCCC/C=C/C[C@@H](O)[C@H](O)[C@@](N)(CO)C(=O)O` [MYRIOCIN], inhibition was half-maximal at 8 nM (IC50).
The figure for `CCCCCCCCCCCCCCCCCCC(N)CO` (configuration not stated) is 140 nM; for `CCCCCCCCCCCCCCCCCCC(N)(CO)CO` it is 12 nM.
